According to ChEMBL document CHEMBL1949518, “Synthesis and biological evaluation of some new 2-pyrazolines bearing benzene sulfonamide moiety as potential anti-inflammatory and anti-cancer agents” (Eur J Med Chem, 2011):

Assays:
Format in all cases: functional
[1] = system: MDA-MB-435; experiment: Anticancer activity against human MDA-MB-435 cells after 48 hrs by SRB assay; settings: MDA-MB-435, 48 h
[2] = system: SK-MEL-2; experiment: Anticancer activity against human SK-MEL-2 cells after 48 hrs by SRB assay; settings: SK-MEL-2, 48 h
[3] = system: SK-MEL-28; experiment: Anticancer activity against human SK-MEL-28 cells after 48 hrs by SRB assay; settings: SK-MEL-28, 48 h
[4] = system: SK-MEL-5; experiment: Anticancer activity against human SK-MEL-5 cells after 48 hrs by SRB assay; settings: SK-MEL-5, 48 h
[5] = system: UO-31; experiment: Antiproliferative activity against human UO31 cells assessed as cell growth at 10^-5 M after 48 hrs by SRB assay relative to control; settings: UO-31, 48 h, read-out: Activity
[6] = system: A549; experiment: Anticancer activity against human A549 cells after 48 hrs by SRB assay; settings: A549, 48 h
[7] = system: HOP-62; experiment: Anticancer activity against human HOP62 cells after 48 hrs by SRB assay; settings: HOP-62, 48 h
[8] = system: HOP-92; experiment: Anticancer activity against human HOP92 cells after 48 hrs by SRB assay; settings: HOP-92, 48 h
[9] = system: NCI-H23; experiment: Anticancer activity against human NCI-H23 cells after 48 hrs by SRB assay; settings: NCI-H23, 48 h
[10] = system: NCI-H322M; experiment: Anticancer activity against human NCI-H322M cells after 48 hrs by SRB assay
[11] = system: NCI-H460; experiment: Anticancer activity against human NCI-H460 cells after 48 hrs by SRB assay; settings: NCI-H460, 48 h; for CC50: read-out: LC50 (the source's name)
[12] = system: NCI-H522; experiment: Anticancer activity against human NCI-H522 cells after 48 hrs by SRB assay; settings: NCI-H522, 48 h
[13] = system: COLO 205; experiment: Anticancer activity against human COLO205 cells after 48 hrs by SRB assay; settings: COLO 205, 48 h
[14] = system: KM12; experiment: Anticancer activity against human KM12 cells after 48 hrs by SRB assay; settings: KM12, 48 h
[15] = system: SW-620; experiment: Anticancer activity against human SW620 cells after 48 hrs by SRB assay; settings: SW-620, 48 h
[16] = system: SF-268; experiment: Anticancer activity against human SF268 cells after 48 hrs by SRB assay; settings: SF-268, 48 h; for CC50: read-out: LC50 (the source's name)
[17] = system: SNB-75; experiment: Anticancer activity against human SNB75 cells after 48 hrs by SRB assay; settings: SNB-75, 48 h
[18] = system: U-251; experiment: Anticancer activity against human U251 cells after 48 hrs by SRB assay; settings: U-251, 48 h
[19] = system: OVCAR-3; experiment: Anticancer activity against human OVCAR3 cells after 48 hrs by SRB assay; settings: OVCAR-3, 48 h
[20] = system: OVCAR-4; experiment: Anticancer activity against human OVCAR4 cells after 48 hrs by SRB assay; settings: OVCAR-4, 48 h
[21] = system: NCI/ADR-RES; experiment: Anticancer activity against human NCI/ADR-RES cells after 48 hrs by SRB assay; settings: for CC50: read-out: LC50 (the source's name)
[22] = system: 786-0; experiment: Anticancer activity against human 786-0 cells after 48 hrs by SRB assay; settings: 786-0, 48 h; for CC50: read-out: LC50 (the source's name)
[23] = system: A498; experiment: Anticancer activity against human A498 cells after 48 hrs by SRB assay; settings: A498, 48 h; for CC50: read-out: LC50 (the source's name)
[24] = system: ACHN; experiment: Anticancer activity against human ACHN cells after 48 hrs by SRB assay; settings: for CC50: read-out: LC50 (the source's name)
[25] = system: SN12C; experiment: Anticancer activity against human SN12C cells after 48 hrs by SRB assay; settings: for CC50: read-out: LC50 (the source's name)
[26] = system: TK-10; experiment: Anticancer activity against human TK10 cells after 48 hrs by SRB assay; settings: TK-10, 48 h; for CC50: read-out: LC50 (the source's name)
[27] = system: UO-31; experiment: Anticancer activity against human UO31 cells after 48 hrs by SRB assay; settings: UO-31, 48 h; for CC50: read-out: LC50 (the source's name)
[28] = system: MCF7; experiment: Anticancer activity against human MCF7 cells after 48 hrs by SRB assay; settings: MCF7, 48 h; for CC50: read-out: LC50 (the source's name)
[29] = system: MDA-MB-231; experiment: Anticancer activity against human MDA-MB-231 cells after 48 hrs by SRB assay; settings: MDA-MB-231, 48 h; for CC50: read-out: LC50 (the source's name)
[30] = system: BT-549; experiment: Anticancer activity against human BT549 cells after 48 hrs by SRB assay; settings: BT-549, 48 h; for CC50: read-out: LC50 (the source's name)
[31] = system: T47D; experiment: Anticancer activity against human T47D cells after 48 hrs by SRB assay; settings: for CC50: read-out: LC50 (the source's name)
[32] = system: MDA-MB-468; experiment: Anticancer activity against human MDA-MB-468 cells after 48 hrs by SRB assay; settings: MDA-MB-468, 48 h; for CC50: read-out: LC50 (the source's name)
[33] = system: Malme-3M; experiment: Anticancer activity against human MALME-3M cells after 48 hrs by SRB assay; settings: for CC50: read-out: LC50 (the source's name)
[34] = system: M14; experiment: Anticancer activity against human M14 cells after 48 hrs by SRB assay; settings: M14, 48 h; for CC50: read-out: LC50 (the source's name)
[35] = system: SK-MEL-2; experiment: Antiproliferative activity against human SK-MEL-2 cells assessed as cell growth at 10^-5 M after 48 hrs by SRB assay relative to control; settings: SK-MEL-2, 48 h, read-out: Activity

Cc1cc(O)c(C2=NN(c3ccc(S(N)(=O)=O)cc3)C(c3ccc(N(C)C)cc3)C2)c(C)c1Cl (stereo not drawn)
GI50 [1]: 3.57 µM | LC50 (concentration killing 50% of cells) [1]: 41.5 µM | TGI [1]: 14.8 µM | GI50 [2]: 11.9 µM | LC50 [2]: 64 µM | TGI [2]: 27.6 µM | GI50 [3]: 11.7 µM | LC50 [3]: 48.9 µM | TGI [3]: 23.9 µM | GI50 [4]: 9.59 µM | LC50 (concentration killing 50% of cells) [4]: 46.2 µM | TGI [4]: 21.4 µM | growth at 10 µM [5]: 66.6% | GI50 [6]: 5.91 µM | LC50 [6]: 73.4 µM | TGI [6]: 22.5 µM | GI50 [7]: 10.4 µM | LC50 [7]: 52.1 µM | TGI [7]: 23.3 µM | GI50 [8]: 3.74 µM | LC50 [8]: 41.9 µM | TGI [8]: 17.6 µM | GI50 [9]: 5.82 µM | LC50 (concentration killing 50% of cells) [9]: 47.3 µM | TGI [9]: 19.9 µM | GI50 [10]: 5.01 µM | LC50 [10]: 52.9 µM | TGI [10]: 20.2 µM | GI50 [11]: 2.53 µM | TGI [11]: 7.24 µM | CC50 [11]: 29.8 µM | GI50 [12]: 6.24 µM | LC50 [12]: 58.8 µM | TGI [12]: 21.6 µM | GI50 [13]: 1.69 µM | LC50 [13]: 6.49 µM | TGI [13]: 3.31 µM | GI50 [14]: 2.8 µM | LC50 [14]: 38.2 µM | TGI [14]: 10.6 µM | GI50 [15]: 3.72 µM | LC50 (concentration killing 50% of cells) [15]: 50.2 µM | TGI [15]: 15.2 µM | GI50 [16]: 5.76 µM | TGI [16]: 19.4 µM | CC50 [16]: 48.9 µM | GI50 [17]: 10.9 µM | LC50 [17]: 51.2 µM | TGI [17]: 23.7 µM | GI50 [18]: 3.34 µM | LC50 [18]: 53.7 µM | TGI [18]: 13.5 µM | GI50 [19]: 4.21 µM | LC50 (concentration killing 50% of cells) [19]: 39.6 µM | TGI [19]: 15.7 µM | GI50 [20]: 7.68 µM | LC50 [20]: 49.7 µM | TGI [20]: 21.2 µM | GI50 [21]: 4.63 µM | TGI [21]: 17 µM | CC50 [21]: 4.35 µM | GI50 [22]: 4.97 µM | TGI [22]: 17.4 µM | CC50 [22]: 43.4 µM | GI50 [23]: 6.97 µM | TGI [23]: 19.3 µM | CC50 [23]: 44.2 µM | GI50 [24]: 3.7 µM | TGI [24]: 14.4 µM | CC50 [24]: 39.5 µM | GI50 [25]: 5.71 µM | TGI [25]: 19.2 µM | CC50 [25]: 43.9 µM | GI50 [26]: 4.48 µM | TGI [26]: 18.8 µM | CC50 [26]: 69.5 µM | GI50 [27]: 3.78 µM | TGI [27]: 19.2 µM | CC50 [27]: 52.3 µM | GI50 [28]: 2.01 µM | TGI [28]: 10.5 µM | CC50 [28]: 37.1 µM | GI50 [29]: 2.34 µM | TGI [29]: 11.8 µM | CC50 [29]: 38.7 µM | GI50 [30]: 1.31 µM | TGI [30]: 27.7 µM | CC50 [30]: 58.9 µM | GI50 [31]: 2.93 µM | TGI [31]: 14.9 µM | CC50 [31]: 49.8 µM | GI50 [32]: 10.7 µM | TGI [32]: 24.6 µM | CC50 [32]: 56.8 µM | GI50 [33]: 14.8 µM | TGI [33]: 35.2 µM | CC50 [33]: 83.4 µM | GI50 [34]: 2.62 µM | TGI [34]: 10.4 µM | CC50 [34]: 32.2 µM

Cc1cc(O)c(C2=NN(c3ccc(S(N)(=O)=O)cc3)C(c3ccc(Cl)cc3)C2)c(C)c1Cl (stereo not drawn)
GI50 [1]: 13.4 µM | TGI [1]: 31 µM | GI50 [2]: 21.4 µM | TGI [2]: 43.6 µM | GI50 [3]: 19.4 µM | TGI [3]: 35.6 µM | GI50 [4]: 14.5 µM | TGI [4]: 27.8 µM | growth at 10 µM [35]: 92.5% | GI50 [6]: 14.7 µM | TGI [6]: 43.4 µM | GI50 [7]: 18.6 µM | TGI [7]: 34.8 µM | GI50 [8]: 10.3 µM | TGI [8]: 23.6 µM | GI50 [9]: 17.7 µM | TGI [9]: 43.7 µM | GI50 [10]: 18 µM | TGI [10]: 38.9 µM | GI50 [11]: 12.2 µM | TGI [11]: 27.4 µM | CC50 [11]: 61.4 µM | GI50 [12]: 18.6 µM | TGI [12]: 48.4 µM | GI50 [13]: 12.3 µM | TGI [13]: 25.4 µM | GI50 [14]: 13.3 µM | TGI [14]: 28.3 µM | GI50 [15]: 18.4 µM | TGI [15]: 37.8 µM | GI50 [16]: 18.7 µM | TGI [16]: 37.2 µM | CC50 [16]: 73.9 µM | GI50 [17]: 17 µM | TGI [17]: 42.2 µM | GI50 [18]: 11.8 µM | TGI [18]: 26.9 µM | GI50 [19]: 17.8 µM | TGI [19]: 33.3 µM | GI50 [20]: 13.3 µM | TGI [20]: 27.6 µM | GI50 [21]: 19.3 µM | TGI [21]: 76.4 µM | CC50 [21]: 100 µM | GI50 [22]: 16.8 µM | TGI [22]: 32.2 µM | CC50 [22]: 62 µM | GI50 [23]: 26.7 µM | TGI [23]: 43.9 µM | CC50 [23]: 72.2 µM | GI50 [24]: 14.9 µM | TGI [24]: 30.6 µM | CC50 [24]: 62.9 µM | GI50 [25]: 9.62 µM | TGI [25]: 24.9 µM | CC50 [25]: 63 µM | GI50 [26]: 22.1 µM | TGI [26]: 42.4 µM | CC50 [26]: 81.4 µM | GI50 [27]: 12.7 µM | TGI [27]: 29.4 µM | CC50 [27]: 68.1 µM | GI50 [28]: 6.55 µM | TGI [28]: 24.2 µM | CC50 [28]: 71.1 µM | GI50 [29]: 11 µM | TGI [29]: 27.2 µM | CC50 [29]: 67.5 µM | GI50 [30]: 15.4 µM | TGI [30]: 43.3 µM | CC50 [30]: 100 µM | GI50 [31]: 5.72 µM | TGI [31]: 19.7 µM | CC50 [31]: 51.4 µM | GI50 [32]: 17.1 µM | TGI [32]: 33.8 µM | CC50 [32]: 66.7 µM | GI50 [33]: 14.8 µM | TGI [33]: 32.7 µM | CC50 [33]: 72.1 µM | GI50 [34]: 14 µM | TGI [34]: 29.4 µM | CC50 [34]: 61.5 µM
